Reference: PubChem BioAssay (NCI)
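Method: 48-hour compound exposure of cells in 96-well plates, five concentrations, linear interpolation of endpoints. TGI denotes the concentration required for complete inhibition of growth.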

Legend:
Assay in all cases: DTP human tumour cell line panel, 48 h
786-0 renal = tested on: 786-0 renal
A498 renal = tested on: A498 renal
A549 NSCLC = tested on: A549 NSCLC
ACHN renal = tested on: ACHN renal
CAKI-1 renal = tested on: CAKI-1 renal
CCRF-CEM leukemia = tested on: CCRF-CEM leukemia
COLO 205 colon = tested on: COLO 205 colon
DU-145 prostate = tested on: DU-145 prostate
EKVX NSCLC = tested on: EKVX NSCLC
HCC-2998 colon = tested on: HCC-2998 colon
HCT-116 colon = tested on: HCT-116 colon
HCT-15 colon = tested on: HCT-15 colon
HL-60(TB) leukemia = tested on: HL-60(TB) leukemia
HOP-62 NSCLC = tested on: HOP-62 NSCLC
HS 578T breast = tested on: HS 578T breast
HT29 colon = tested on: HT29 colon
IGROV1 ovarian = tested on: IGROV1 ovarian
K-562 leukemia = tested on: K-562 leukemia
KM12 colon = tested on: KM12 colon
LOX IMVI melanoma = tested on: LOX IMVI melanoma
MALME-3M melanoma = tested on: MALME-3M melanoma
MCF7 breast = tested on: MCF7 breast
MDA-MB-231 breast = tested on: MDA-MB-231 breast
MDA-N = tested on: MDA-N
MOLT-4 leukemia = tested on: MOLT-4 leukemia
NCI-H23 lung = tested on: NCI-H23 lung
NCI-H460 lung = tested on: NCI-H460 lung
NCI/ADR-RES ovarian = tested on: NCI/ADR-RES ovarian
OVCAR-3 ovarian = tested on: OVCAR-3 ovarian
OVCAR-4 ovarian = tested on: OVCAR-4 ovarian
OVCAR-5 ovarian = tested on: OVCAR-5 ovarian
OVCAR-8 ovarian = tested on: OVCAR-8 ovarian
PC-3 prostate = tested on: PC-3 prostate
RPMI-8226 leukemia = tested on: RPMI-8226 leukemia
SF-268 CNS = tested on: SF-268 CNS
SF-295 CNS = tested on: SF-295 CNS
SK-MEL-2 melanoma = tested on: SK-MEL-2 melanoma
SK-MEL-28 melanoma = tested on: SK-MEL-28 melanoma
SK-MEL-5 melanoma = tested on: SK-MEL-5 melanoma
SK-OV-3 ovarian = tested on: SK-OV-3 ovarian
SN12C renal = tested on: SN12C renal
SNB-19 CNS = tested on: SNB-19 CNS
SNB-75 CNS = tested on: SNB-75 CNS
SR leukemia = tested on: SR leukemia
SW-620 colon = tested on: SW-620 colon
T-47D breast = tested on: T-47D breast
TK-10 renal = tested on: TK-10 renal
U251 CNS = tested on: U251 CNS
UACC-257 melanoma = tested on: UACC-257 melanoma
UO-31 renal = tested on: UO-31 renal

`CC1CN=C(N(C(=O)Nc2ccccc2)c2ccccc2)S1` (stereo not given) showed a TGI (786-0 renal) greater than 100 µM, a TGI (A498 renal) of 51.2 µM and a TGI (A549 NSCLC) greater than 100 µM. The TGI (ACHN renal) was greater than 100 µM, the TGI (CAKI-1 renal) was greater than 100 µM and the TGI (CCRF-CEM leukemia) was 64 µM. It also gave a TGI (COLO 205 colon) greater than 100 µM, a TGI (DU-145 prostate) greater than 100 µM and a TGI (EKVX NSCLC) greater than 100 µM. For the same compound, the TGI (HCC-2998 colon) was greater than 100 µM, the TGI (HCT-116 colon) was greater than 100 µM and the TGI (HCT-15 colon) was greater than 100 µM. It also gave a TGI (HL-60(TB) leukemia) of 66.4 µM, a TGI (HOP-62 NSCLC) greater than 100 µM and a TGI (HS 578T breast) greater than 100 µM. It also gave a TGI (HT29 colon) of 36.6 µM, a TGI (IGROV1 ovarian) greater than 100 µM and a TGI (K-562 leukemia) greater than 100 µM. The TGI (KM12 colon) was greater than 100 µM, the TGI (LOX IMVI melanoma) was 37.4 µM and the TGI (MALME-3M melanoma) was 58.8 µM. The TGI (MCF7 breast) was 49.7 µM, the TGI (MDA-MB-231 breast) was greater than 100 µM and the TGI (MDA-N) was 48.2 µM. The TGI (MOLT-4 leukemia) was 61.6 µM, the TGI (NCI-H23 lung) was greater than 100 µM and the TGI (NCI-H460 lung) was greater than 100 µM. For the same compound, the TGI (NCI/ADR-RES ovarian) was 71.5 µM, the TGI (OVCAR-3 ovarian) was 82.2 µM and the TGI (OVCAR-4 ovarian) was greater than 100 µM. It also gave a TGI (OVCAR-5 ovarian) greater than 100 µM, a TGI (OVCAR-8 ovarian) greater than 100 µM and a TGI (PC-3 prostate) greater than 100 µM. The TGI (RPMI-8226 leukemia) was 67.9 µM, the TGI (SF-268 CNS) was greater than 100 µM and the TGI (SF-295 CNS) was greater than 100 µM. The TGI (SK-MEL-2 melanoma) was 40.5 µM, the TGI (SK-MEL-28 melanoma) was 31.9 µM and the TGI (SK-MEL-5 melanoma) was 31.8 µM. For the same compound, the TGI (SK-OV-3 ovarian) was greater than 100 µM, the TGI (SN12C renal) was 62.9 µM and the TGI (SNB-19 CNS) was greater than 100 µM. For the same compound, the TGI (SNB-75 CNS) was greater than 100 µM, the TGI (SR leukemia) was 81.5 µM and the TGI (SW-620 colon) was greater than 100 µM. The TGI (T-47D breast) was greater than 100 µM, the TGI (TK-10 renal) was 94.2 µM and the TGI (U251 CNS) was greater than 100 µM. It also gave a TGI (UACC-257 melanoma) of 64.7 µM and a TGI (UO-31 renal) greater than 100 µM.
